Measured values reported in ChEMBL document CHEMBL1154859, “Structure of aldehyde reductase in ternary complex with a 5-arylidene-2,4-thiazolidinedione aldose reductase inhibitor” (Eur J Med Chem, 2010).

How the values were obtained:
[1] = biological target: T1, Aldo-keto reductase family 1 member A1 (Sus scrofa, UniProt P50578); test: Inhibition of pig ALR1 assessed as decrease in NADPH absorbance by spectrophotometry
T1 sequence (P50578 whole entry): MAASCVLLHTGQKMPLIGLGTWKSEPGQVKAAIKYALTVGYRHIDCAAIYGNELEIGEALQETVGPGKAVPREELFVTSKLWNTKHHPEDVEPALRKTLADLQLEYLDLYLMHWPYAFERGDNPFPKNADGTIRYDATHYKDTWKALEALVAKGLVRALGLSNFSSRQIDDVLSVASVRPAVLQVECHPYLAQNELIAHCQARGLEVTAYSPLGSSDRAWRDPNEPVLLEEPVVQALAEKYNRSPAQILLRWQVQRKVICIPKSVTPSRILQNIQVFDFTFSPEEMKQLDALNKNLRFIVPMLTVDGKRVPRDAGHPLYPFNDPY

[2] = Ratio of IC50 for pig ALR1 to IC50 for calf ALR2

In the case of COc1ccc(/C=C2\SC(=O)N(CC(=O)O)C2=O)cc1O, the IC50 [1] is reported as 37 µM and the Ratio IC50 [2] is reported as 56.
